“Also recorded” adds a separate entry of the source. Counter-ions that a name gives are not always drawn. Like-named read-outs stand apart in the source and are kept apart here.
Experiments:
Assay type in all cases: physicochemical
[1] = Solubility by UV-Visible spectroscopy in aqueous 0.1 M HCl (pH 1) at 22° C.; details: for solubility at 24 h: 22 °C, pH 1, simulated gastric fluid, thermodynamic from solid; for solubility: pH 1
Experimental: The solubility of crystalline lercanidipine besylate, napadisylate and hydrochloride and amorphous lercanidipine besylate was evaluated by UV-Visible spectroscopy in aqueous 0.1 M HCl (pH 1) at 22° C. Suspensions of approximately 0.3 mg/ml of the respective compounds were prepared in an aqueous 0.1 M HCl and equilibrated by shaking for 24 hours. Following equilibration, the samples were filtered (0.1 μm filter) and the concentration was determined photometrically using Perkin Elmer Lambda 16 (Überlingen, Germany). Reference measurements were performed with 20% acetonitrile as a co-solvent.

[2] = Stability of crystalline salts (statement, no method)
[3] = Hygroscopicity by DVS analysis (water absorption analyzer); details: humidity cycling between 0 and 95% RH at 25° C.
Experimental: The hygroscopicity of both amorphous and crystalline lercanidipine salts was determined by DVS analysis using a water absorption analyzer (Surface Measurement System Ltd., Marion, Buckinghamshire, UK). The analysis were carried out according to the following conditions: 10-15 mg of sample were placed on a quartz or platinum holder, the holder was placed in-turn on a microbalance, and the sample underwent humidity cycling between 0 and 95% relative humidity (RH) at 25° C. (50-95-0-95-0-50% at a rate of 5% RH/hr).

Row | Compound | solubility at 24 h ([1]; Solubility) [µg/mL] | solubility at 24 h ([1]; solubility in 0.1 N HCl) [µg/mL] | solubility compared with other salt forms [1] | solubility in 0.1 M HCl at 22° C. [1] | solubility [1] [µg/mL] | stability [2] | Hygroscopicity [3] | solubility compared with other salt forms ([1]; 0.1 M / 0.1 N HCl, comparison in words) | solubility in 0.1 M HCl at 22° C. ([1]; 0.1 M HCl, 22° C.)
1 | COC(=O)C1=C(C)NC(C)=C(C(=O)OC(C)(C)CN(C)CCC(c2ccccc2)c2ccccc2)C1c1cccc([N+](=O)[O-])c1 (stereo not shown) [Crystalline hydrochloride, lercanidipine hydrochloride, reference compound] | 10 | ~10 | – | – | – | – | – | – | –
2 | COC(=O)C1=C(C)NC(C)=C(C(=O)OC(C)(C)CN(C)CCC(c2ccccc2)c2ccccc2)C1c1cccc([N+](=O)[O-])c1.COC(=O)C1=C(C)NC(C)=C(C(=O)OC(C)(C)CN(C)CCC(c2ccccc2)c2ccccc2)C1c1cccc([N+](=O)[O-])c1.O=S(=O)(O)c1cccc2c(S(=O)(=O)O)cccc12 (stereo not shown) [Crystalline napadisylate, lercanidipine napadisylate] | – | – | lower solubility than the amorphous salt | about 3.5 mg/L | 3.5 | good stability | hygroscopic | – | –
3 | lercanidipine besylate [Amorphous besylate] | – | – | – | – | 155 | – | non-hygroscopic | – | –
4 | lercanidipine besylate [Crystalline besylate] | – | – | – | – | – | good stability | non-hygroscopic | lower solubility than the amorphous salt; also recorded: substantially more soluble than either crystalline hydrochloride or napadisylate | about 87 mg/L

— patent publication US7683179B2, “Lercanidipine salts” (Recordati Ireland Limited, priority 2004, dated 2010)
